Results from US20240058308A1, “TREATMENT AND PREVENTION OF DRY MACULAR DEGENERATION” (The Regents of the University of Michigan, priority 2021, published 2024).
Like-named read-outs stand apart in the source and are kept apart here.

Tests used:
primary hfRPE culture [1] = assay: Cytotoxicity by LDH release; format: cell-based, human; details: 24 hours exposure
Experimental: (§1) TEER and cell death were measured [Ref 51; incorporated by reference in its entirety]. For cell death assays, maximum possible LDH release per Transwell was measured immediately after 2 μL of the final experimental supernate was taken. The Transwell and supernate was then treated with 0.2% Triton X-100 for 15 minutes at 37° C. followed by collection of an additional 2 μL of supernate. Each experimental LDH release value was first normalized to total LDH release from the vehicle condition. Additionally, all TEER and LDH release measurements were normalized to the vehicle group at the zero-hour timepoint.
To evaluate the safety of D4476 and FLBZ, trans-epithelial electrical resistance (TEER) was measured, a measure of tight-junction integrity, in RPE cultures after prolonged exposure to each compound. As well-formed tight-junctions require myriad cell processes to be optimally coordinated, assessing TEER provides an easily measurable, ongoing, and noninvasive marker for general RPE cell health [Ref. 45; incorporated by reference in its entirety]. […] Lactate dehydrogenase (LDH) release, a combined marker of necrotic and late-stage apoptotic cell death [Refs. 47,48; incorporated by reference in their entireties], was reduced compared to vehicle for all four verified RPE autophagy inducers (FIG. 3b). […]

primary hfRPE culture [2] = assay: Trans-epithelial electrical resistance (TEER), tight-junction integrity; format: cell-based
Experimental: as §1
To evaluate the safety of D4476 and FLBZ, trans-epithelial electrical resistance (TEER) was measured, a measure of tight-junction integrity, in RPE cultures after prolonged exposure to each compound. As well-formed tight-junctions require myriad cell processes to be optimally coordinated, assessing TEER provides an easily measurable, ongoing, and noninvasive marker for general RPE cell health [Ref. 45; incorporated by reference in its entirety]. […] Lactate dehydrogenase (LDH) release, a combined marker of necrotic and late-stage apoptotic cell death [Refs. 47,48; incorporated by reference in their entireties], was reduced compared to vehicle for all four verified RPE autophagy inducers (FIG. 3b). Exposure of RPE cultures to the oxidant tert-butyl hydroperoxide confirmed the ability of the assay to detect cell death (FIG. 10).
Transepithelial Electrical Resistance (TEER) was tested (FIGS. 16 and 17). TEER is a sensitive measure of toxicity (lower the TEER, the more toxic the drug is). Drugs were added daily and measurements made daily for at least 4-8 days.

[3] = test system: primary human fetal RPE (hfRPE) culture; assay: Autophagy flux assay with NH4Cl lysosomal alkalinization; format: cell-based; details: inducer 22.5 hours, then 25 mM NH4Cl for final 1.5 hours
Experimental: Cultures were exposed to compounds or vehicle (DMSO) for 24 hours. […] (C) Autophagy flux assays. After application of inducers or vehicle (DMSO) for 22.5 hours, 25 mM of NH4Cl, a lysosomal alkalizing agent, or H2O were added for a final 1.5 hours to inhibit autophagy flux.
Increases in both LC3 lipidation and autophagosome formation could result from downstream blockade of autophagy at the lysosome.

primary hfRPE culture [4] = test system: primary hfRPE culture
Experimental: (§3) Phagocytosis assays using bovine outer segments was performed using the “pulse-only” method [Ref 43; incorporated by reference in its entirety]. Values at the zero-hour timepoint were used for normalization.

primary hfRPE culture [5] = assay: Undigestible autofluorescent material (UAM) accumulation, elimination and granule size after oxOS feedings; format: cell-based, human; details: fed daily with oxOS over a month; FLBZ 12 μM, Torin 1 μM; vs vehicle
RPE of mouse eye = assay: Intravitreal injection in mouse eyes, autophagy by LC3II/LC3I ratio of lysates; format: in vivo; details: four concentrations up to 500 uM, multiple timepoints, DMSO in other eye
Experimental: Experiments were conducted during development of embodiments herein to assay for autophagy in the mouse eye. Experiments were conducted to measure autophagy by giving an intraperitoneal injection of leupeptin, followed by assaying for LC3 puncta in an RPE flatmount of a GFP-LC3 mouse. Background from GFP-LC3 debris deposited on the RPE when the retina was peeled off for the flat mount prevented signal detection. A biochemical assay was then employed for autophagy induction, measuring an increase in the lipidation of the autophagy core protein LC3 (lipidated LC3=LC3-II, unlipidated LC3=LC3-I, so higher LC3-II/LC3-I ratio indicates autophagy induction). Sufficient signal as obtained. […] Harvesting techniques were also optimized for collecting RPE from mouse eyes.
Experiments were conducted during development of embodiments herein to establish a positive control for autophagy induction. […] Autophagy induction was measured at 4 different concentrations of Torin (500 nm, 5 um, 50 um, 500 um) and at 5 different timepoints after injection (1 day, 3 days, 7 days, 14 days, 28 days). […] Nevertheless, the ability of intravitreal injections of FLBZ to induce autophagy in the RPE was assessed. In preparation for injecting FLBZ intravitreally into mice, solubility assays were performed and the maximum amount of FLBZ that can be injected without it crashing out of solution in the vitreous was determined. […]

[6] = test system: primary human fetal RPE (hfRPE) culture; assay: Autophagy induction by LC3 lipidation (LC3-II/LC3-I ratio) on Western blot; format: cell-based; details: 24 hours exposure, vs vehicle (DMSO)
Experimental: (§2) Cell cultures were exposed to each putative autophagy inducer at a concentration indicated in Table 1 for 24 hours, lysed with 36 μL of SDS sample buffer with β-mercaptoethanol, with 15 μg of lysate loaded on a 4-15% gradient gel followed by transfer to a PVDF membrane. Blots were incubated with 1:1000 of LC3A/B antibody (Cell Signaling Technology; #4108s, RRID:AB_2137703) overnight. Quantifying LC3-II/LC3-I ratio is a well-accepted method for det 306 ermining autophagy induction [Ref. 44; incorporated by reference in its entirety], and this ratio was quantified in a non-saturated, linear range using the Azure c500 Imaging System (Azure Biosystems, Dublin, CA, USA) and a combination of AzureSpot and ImageJ software. The data in FIG. 2A are not normalized, whereas the data in FIGS. 2b and 1c are normalized to the average combined value of the vehicle and drug groups within each experimental repeat. The extreme pigmentation of human fetal cultures, combined with the destruction of the LC3 epitope with melanin bleaching protocols, makes detection of LC3 by microscopy in hfRPE difficult. A range of LC3 staining and puncta quantification protocols specifically adapted to pigmented hfRPE culture were employed [Ref. 43; incorporated by reference in its entirety]. At least five fields of view were randomly chosen and analyzed per experimental replicate for LC3 immunocytochemistry.
To test for autophagy induction, lipidation of the core autophagy protein LC3 was measured by mobility shift on Western blots 24 hours after each compound was added to hfRPE cultures [Ref. 44; incorporated by reference in its entirety]. […] Of the more than 30 putative autophagy inducers tested, only five produced an increased ratio of LC3-II/LC3-I, consistent with increased autophagy (FIG. 2a).
Autophagy induction was measured by LC3-II/LC3-I Ratios on Western Blot (standard method for autophagy induction) (FIG. 18A-C). Drugs were applied to primary human RPE culture for 24 hours.

[7] = test system: primary human fetal RPE (hfRPE) culture; assay: Autophagy induction by LC3 puncta formation (immunocytochemistry); format: cell-based; details: 24 hours exposure
Experimental: as §2
Autophagy induction was confirmed by assaying the formation of LC3-positive puncta (autophagosomes) by immunocytochemistry [Ref. 44; incorporated by reference in its entirety]. Puncta formation was quantified in automated/unbiased fashion using a customized macro in the Fiji/ImageJ platform [Ref. 43; incorporated by reference in its entirety].
Autophagy induction was measured by LC3 puncta on immunocytochemistry (standard method for autophagy induction) (FIG. 19). Drugs applied to primary human RPE culture for 24 hours.

RPE from mouse eyecups = assay: Ex vivo mouse eyecup autophagy induction (LC3II/LC3I ratio); details: mouse RPE/choroid eyecup, 24 hours; Torin 1-5 uM, FLBZ 12-60 uM
Experimental: FIG. 14. Effect of autophagy positive control Torin on RPE from mouse eyecups (DMSO as control). […] Mouse eyes were enucleated, the anterior segment vitreous, and retina were removed, leaving an eyecup with RPE/choroid exposed. […] RPE/Choroid eyecup was treated with 1 uM Torin1 in our previously established RPE cell culture media for 24 hours. n=4.
FIG. 15. Effect of Flubendazole on RPE from Mouse Eyecups (DMSO as control). Conditions with and without ammonium chloride (NH4Cl) help establish high autophagy flux rates. If true autophagy flux is happening, the LC3II/LC3I ratio should increase further upon addition of NH4Cl, as is the case here. DMSO− and FLBZ−, n=6, FLBZ+ and DMSO+ n=5. Flubendazole tested at 60 uM, lysates collected after 24 hours. Induction did occur in eyecups.
Given the inconsistent results with detecting autophagy induction using intravitreal injection of the positive control, Torin, experiments were conducted to determine whether the lack of responsiveness to intravitreal injections was a drug access issue or whether it was a species or animal vs. culture difference. Additional experiments utilized freshly isolated mouse eyecups with the retina removed to determine whether Torin (and FLBZ) induce autophagy in this context. […] The use of ammonium chloride in these experiments blocks lysosomal degradation.

[8] = Solubility assays of DMSO stock mixed with PBS (simulating the vitreous); format: physicochemical; details: Torin 1 mM stock mixed 1:1 with PBS; flubendazole 3 mM stock
Experimental: Experiments were conducted during development of embodiments herein to establish a positive control for autophagy induction. The direct mTOR inhibitor Torin1 was selected over rapamycin/sirolimus as the positive control, based on the capacity of Torin1 to induce autophagy in primary culture more strongly and more consistently than rapamycin. The experimental set-up involved injecting one eye with Torin and the other eye with the DMSO vehicle. Autophagy induction was measured at 4 different concentrations of Torin (500 nm, 5 um, 50 um, 500 um) and at 5 different timepoints after injection (1 day, 3 days, 7 days, 14 days, 28 days). […] Nevertheless, the ability of intravitreal injections of FLBZ to induce autophagy in the RPE was assessed. In preparation for injecting FLBZ intravitreally into mice, solubility assays were performed and the maximum amount of FLBZ that can be injected without it crashing out of solution in the vitreous was determined. […] This helped inform maximal concentrations of flubendazole that could be injected intravitreally. Four different concentrations were injected, up to the maximum solubility of FLBZ, and autophagy induction was assayed over a timeframe ranging from 1 week to 4 weeks after injection.

primary hfRPE culture [9] = assay: Outer segment (OS) phagocytosis efficiency (rhodopsin disappearance); details: bovine outer segments, pulse-only method
Experimental: as §3

[10] = prolonged exposure, drug or vehicle (DMSO) replaced daily

| Structure (SMILES) | TEER (toxicity), Example 3 (primary hfRPE culture [2]) | Autophagy flux: LC3-II/LC3-I ratio after NH4Cl [3] | LC3-II/LC3-I ratio (autophagy induction) [6] | LC3 puncta formation (autophagy induction) [7] | further results |
| --- | --- | --- | --- | --- | --- |
| CC(C)(C)OO [tBHP, tert-butyl hydroperoxide] | – | – | – | – | LDH release after oxidant exposure (assay validation) (primary hfRPE culture [1]): marked increase in LDH release |
| CCN(CC)CCNC(=O)c1c(C)[nH]c(/C=C2\C(=O)Nc3ccc(F)cc32)c1C [sunitinib] | No toxicity is observed | – | – | – | – |
| CCC(=O)N1CCN(c2ccc(-n3c(=O)ccc4cnc5ccc(-c6cnc7ccccc7c6)cc5c43)cc2C(F)(F)F)CC1 [Torin, Torin1] | – | induces autophagy flux | upregulate autophagy | induced autophagy | OS phagocytosis efficiency / OS degradative capacity (primary hfRPE culture [4]): reduces phagocytosis efficiency; UAM accumulation, drug fed concurrently with oxOS (primary hfRPE culture [5]): more UAM accumulation; Autophagy induction in RPE after intravitreal injection (LC3II/LC3I ratio) (RPE of mouse eye): No concentration or time after injection provided convincing evidence for replicable autophagy induction; Autophagy induction in eyecups (LC3II/LC3I ratio) (RPE from mouse eyecups): induces autophagy well; TEER (tight-junction integrity) (primary hfRPE culture [2]): dramatically reduced TEER; Precipitation of DMSO stock solution when mixed with PBS [8]: did not crash out |
| CC(C)(Sc1ccc(CCN(CCCCC2CCCCC2)C(=O)NC2CCCCC2)cc1)C(=O)O [GW7647] | – | – | Induction of autophagy | – | – |
| CCCCc1oc2ccccc2c1C(=O)c1cc(I)c(OCCN(CC)CC)c(I)c1 [Amiodarone] | – | – | Induction of autophagy | – | – |
| O=C1NC(=O)/C(=C/c2ccc3nccc(-c4ccncc4)c3c2)S1 [GSK, GSK 1059615] | – | induces autophagy flux | upregulate autophagy | induced autophagy | OS phagocytosis efficiency / OS degradative capacity (primary hfRPE culture [4]): reduces phagocytosis efficiency; TEER (tight-junction integrity) (primary hfRPE culture [2]; [10]): dramatically reduced TEER |
| O=C(NCC1(N2CCN(c3ccccc3)CC2)CCOCC1)c1cccnc1Sc1ccccc1 [JNJ, JNJ-47965567] | – | – | Induction of autophagy | – | – |
| COc1cc2c(Oc3ccc4[nH]c(C)cc4c3F)ccnc2cc1OCC1(N)CC1 [anlotinib] | No toxicity is observed | – | evidence for autophagy induction | confirming autophagy induction | – |
| NC(=O)c1ccc(-c2nc(-c3ccc4c(c3)OCCO4)c(-c3ccccn3)[nH]2)cc1 [D4476] | – | induces autophagy flux | Induction of autophagy | induced autophagy | OS phagocytosis efficiency / OS degradative capacity (primary hfRPE culture [9]): no effect on OS degradative capacity; TEER (tight-junction integrity) (primary hfRPE culture [2]; [10]): more modest impact |
| N#CC1(c2ccc(NC(=O)c3cccnc3NCc3ccncc3)cc2)CCCC1 [apatinib] | No toxicity is observed | – | evidence for autophagy induction | confirming autophagy induction | – |
